≈ marks a conversion by molar mass, not a printed value. Like-named read-outs stand apart in the source and are kept apart here.
Columns and labels:
[1] = tested on: Gloeocapsa sp. and Oscillatoria sp.; experiment: Algal efficacy on dry paint film (Modified ASTM 5589), pool Gs + Os; assay type: cell-based; details: for % Inhibition Gs + Os: four weeks; for % Inhibition, Os-Gl: at the total conc printed for the same blend
Protocol: (§1) A single biocide or blend of biocides was post added into white acrylic latex paint free of biocides to give a maximum total active ingredient/s concentration tested. This paint was then diluted with a biocide free acrylic latex paint to give targeted concentrations for the testing. Depending on the type of biocide blends tested, the total biocides concentrations varies from 400 to 3300 ppm. After biocides addition or dilution, each sample was hand mixed for at least a minute until uniformity was achieved. Each of the paint samples as well as a control sample (containing no biocide) were used to prepare films on black plastic-vinyl chloride/acetate copolymer panels (Leneta Company, Mahwah, N.J.) using a 0.0762 mm (3 mil) bird bar applicator. The panels were thoroughly dried for at least 2 days avoiding direct exposure to sunlight. Square discs (0.5 inch^2; 1.27 cm^2) were cut out from each panel and were used as the substrate for fungal and algal efficacy tests. This sample size allowed for an agar border when the sample disc was placed into the well of the test plate. Each sample was tested in duplicate.
(§2) The appropriate media (BOLD'S 3N for Chlorophytes, BG-11 for Cyanobacteria, and PDA for fungi) were used to support microbial growth. The test plates were maintained at room temp (25° C.-26° C.), in a cycled light-dark environment, for four weeks for algae. Plates for fungal challenge tests were maintained at 30° C. for four weeks. At the end of the incubation period the samples were scored for percent area covered by visible microbial growth.
(§3) Algal efficacy was tested as follows (Modified ASTM 5589).
(§4) ASTM 5589 is a standard accelerated test method for determining resistance of various coatings (including paints) to algal defacement. To accommodate for high-throughput screening, this method was scaled down from petri plates to 6-well plates. A single coupon was placed with a pair of sterile forceps at the center of the agar plug (on top) with the painted surface facing upwards. Algal inoculums were prepared by mixing equal concentrations (approximately 1×10^6 cfu/ml) and equal volumes (depending on number of samples to be inoculated) of like growing organisms.
(§5) In this synergy study, three pool of mixed algae were prepared as the test inoculum, Gloeocapsa sp. and Oscillatoria sp. a mix of cyanobacteria grown on BG-11 media; Chlorella sp., Chlorella kessleri, and Nostoc commune are unicellular chlorphytes that were mixed and grown on Bold media; Trentepohlia aurea, Tretepohlia odorata, and Calotrix parientina are filamentous algae that were mixed and grown on Bold media.
(§6) Each well that contained a tested coupon was inoculated with 400 μl of organism mixture (approximately 1×10^6 cfu/ml) making sure that the whole surface (paint film as well as the agar surrounding it) was evenly covered. The plates were incubated at room temp (25° C.-26° C.) with cyclic exposure to light (OTT-Lite model # OTL4012P, 40 Watt, 26 KLumen) and dark phases, for a period of four weeks. The total area covered was evaluated at the end of each week according to percent area covered in 5% increments.
(§7) The SI is calculated based on F. C. Kull et.
(§8) SI value of <1 in the formula indicates a synergism of the blended biocides exists.
(§9) NE=no end point at the concentration tested that will meet the percent inhibition criteria set in each SI calculation.

[2] = tested on: Chlorella sp., Chlorella kessleri, and Nostoc commune; experiment: Algal efficacy on dry paint film (Modified ASTM 5589), pool Cs + Ck + Nc; assay type: cell-based
Protocol: as §1, §2, §3, §4, §5, §6, §7, §8, §9

[3] = tested on: Cladosporium herbarum was mixed with Trichoderma viride; experiment: Fungal efficacy on dry paint film (Modified ASTM 5590), pool TV + Ch; assay type: cell-based; details: four weeks
Protocol: (§10) Each sample was tested in duplicate.
(§11) Fungal efficacy was tested as follows (Modified ASTM 5590).

[4] = tested on: blue-green algae (Anabaena flos-aquae); details: 7 day; cited from earlier work
various algae = details: cited from earlier work
[5] = tested on: Trentepohlia aurea, Tretepohlia odorata, and Calotrix parientina; experiment: Algal efficacy on dry paint film (Modified ASTM 5589), pool Cp + To + Ta; assay type: cell-based; details: for % Inhibition Cp + To + Ta: four weeks; for % Inhibition, Cal-Tre: at the total conc printed for the same blend
Protocol: as §1, §2, §3, §4, §5, §6, §7, §8, §9

[6] = cited from earlier work
[7] = tested on: Alternaria alternata was mixed with Aureobasidium pullulans; experiment: Fungal efficacy on dry paint film (Modified ASTM 5590), pool Aa + Ap; assay type: cell-based; details: 672 h, four weeks
Protocol: as §10, §11

[8] = tested on: marine algae (Skeletonema costatum); details: cited from earlier work
[9] = tested on: Aspergillus niger was mixed with Penicillium funiculosum; experiment: Fungal efficacy on dry paint film (Modified ASTM 5590), pool An + Pf; assay type: cell-based; details: for % Inhibition An + Pf: four weeks; for % Inhibition, An-Pf: at the total conc printed for the same blend
Protocol: as §1, §2, §11
ASTM 5590 is a standard accelerated test method for determining resistance of various coatings (including paints) to fungal defacement. To accommodate for high-throughput screening, this method was scaled down from petri plates to 6-well plates. To set up the test, an agar plug was placed at the bottom of each well of the sterile 6-well plate. A single coupon was placed with a pair of sterile forceps at the center of the agar plug (on top) with the painted surface facing upwards. Fungal inoculums were prepared by mixing equal concentrations (approximately 1×10^6 cfu/ml) and equal volumes (depending on number of samples to be tested) of like growing organisms. For this synergy study, three pools of mixed fungi were prepared as the test inoculum. Cladosporium herbarum was mixed with Trichoderma viride, Aspergillus niger was mixed with Penicillium funiculosum and Alternaria alternata was mixed with Aureobasidium pullulans. Each well was inoculated with 400 microliter of organism mixture (approximately 1×10^6 cfu/ml) making sure that the whole surface (paint film as well as the agar surrounding it) was evenly covered. The plates were incubated at 30° C. in presence of moisture, for a period of four weeks. The total percent area covered was evaluated and recorded at the end of each week and recorded in increments of 5%.
as §7, §8, §9

[10] = tested on: diatom (Navicula pelliculosa); details: 7 day; cited from earlier work
[11] = tested on: green algae (Selenastrum capricornutum); details: cited from earlier work; for EbC50: biomass
[12] = 672 h, read-out: % Inhibition Gs + Os
[13] = Nostoc commune, 672 h, read-out: % Inhibition Cs + Ck + Nc
[14] = Trentepohlia aurea, 672 h, read-out: % Inhibition Cp + To + Ta
[15] = 672 h, read-out: % Inhibition An + Pf

Question: With `O=C(O)CNCP(=O)(O)O` [glyphosate, N-(phosphonomethyl)glycine] as the compound, how does the inhibition at 750 ppm [1, 12] read?
Answer: The inhibition at 750 ppm was 15%.

Question: What about the inhibition at 1500 ppm [1, 12] of the same compound?
Answer: The inhibition at 1500 ppm was 72.5%.

Question: What about the inhibition at 2500 ppm [1, 12] of the same compound?
Answer: The inhibition at 2500 ppm was 90%.

Question: What about the inhibition at 750 ppm [2, 13] of the same compound?
Answer: The inhibition at 750 ppm was 37.5%.

Question: And the inhibition at 1500 ppm [2, 13]?
Answer: Its inhibition at 1500 ppm is 60%.

Question: What about the inhibition at 2500 ppm [2, 13] of the same compound?
Answer: The inhibition at 2500 ppm was 80%.

Question: What about the inhibition at 750 ppm ([3]; 672 h, 750 ppm in paint) of the same compound?
Answer: Its inhibition at 750 ppm is 2.5%.

Question: What about the inhibition at 1500 ppm ([3]; 672 h, 1500 ppm in paint) of the same compound?
Answer: Its inhibition at 1500 ppm is 50%.

Question: What about the inhibition at 2500 ppm ([3]; 672 h, 2500 ppm in paint) of the same compound?
Answer: The inhibition at 2500 ppm was 72.5%.

Question: What about the EC50 [4] of the same compound?
Answer: The EC50 was 15 µg/mL (≈ 88.7 µM).

Question: And the “activity against various algae” value (various algae)?
Answer: The value was “relatively low”.

Question: What about the inhibition at 750 ppm [5, 14] of the same compound?
Answer: The inhibition at 750 ppm was 0%.

Question: What about the inhibition at 1500 ppm [5, 14] of the same compound?
Answer: The inhibition at 1500 ppm was 10%.

Question: And the inhibition at 2500 ppm [5, 14]?
Answer: The inhibition at 2500 ppm was 7.5%.

Question: And the solubility in water [6]?
Answer: Its solubility in water is “relatively high”.

Question: What about the inhibition at 750 ppm ([7]; 750 ppm in paint) of the same compound?
Answer: Its inhibition at 750 ppm is 7.5%.

Question: And the inhibition at 1500 ppm ([7]; 1500 ppm in paint)?
Answer: Its inhibition at 1500 ppm is 20%.

Question: And the inhibition at 2500 ppm ([7]; 2500 ppm in paint)?
Answer: Its inhibition at 2500 ppm is 67.5%.

Question: What about the EC50 ([8]; 96 hr) of the same compound?
Answer: Its EC50 is 1.3 µg/mL (≈ 7.69 µM).

Question: And the EC50 ([8]; 7 day)?
Answer: The EC50 was 0.64 µg/mL (≈ 3.79 µM).

Question: And the inhibition at 750 ppm [9, 15]?
Answer: The inhibition at 750 ppm was 0%.

Question: What about the inhibition at 1500 ppm [9, 15] of the same compound?
Answer: Its inhibition at 1500 ppm is 5%.

Question: What about the inhibition at 2500 ppm [9, 15] of the same compound?
Answer: Its inhibition at 2500 ppm is 10%.

Question: And the EC50 [10]?
Answer: Its EC50 is 42 µg/mL (≈ 248 µM).

Question: And the EbC50 ([11]; 72 hr)?
Answer: Its EbC50 is 485 mg/L.

Question: What about the ErC50 ([11]; 72 hr, growth rate) of the same compound?
Answer: The ErC50 was 460 mg/L.

Question: What about the EbC50 ([11]; 7 day) of the same compound?
Answer: Its EbC50 is 13.8 mg/L.

Question: For zinc glyphosate, which “% Inhibition Gs + Os” value ([1]; 750 ppm in paint) is on record?
Answer: The value was 15%.

Question: What about the “% Inhibition Gs + Os” value ([1]; 1500 ppm in paint) of the same compound?
Answer: The value was 72.5%.

Question: What about the “% Inhibition Gs + Os” value ([1]; 2500 ppm in paint) of the same compound?
Answer: The value was 90%.

Question: And the “% Inhibition, Os-Gl” value ([1]; Os-Gl)?
Answer: The value was 100%.

Question: What about the “% Inhibition TV + Ch” value ([3]; 750 ppm in paint) of the same compound?
Answer: Its value is 50%.

Question: And the “% Inhibition TV + Ch” value ([3]; 1500 ppm in paint)?
Answer: The value was 75%.

Question: What about the “% Inhibition TV + Ch” value ([3]; 2500 ppm in paint) of the same compound?
Answer: Its value is 90%.

Question: And the “% Inhibition Cp + To + Ta” value ([5]; 750 ppm in paint)?
Answer: Its value is 0%.

Question: What about the “% Inhibition Cp + To + Ta” value ([5]; 1500 ppm in paint) of the same compound?
Answer: The value was 0%.

Question: What about the “% Inhibition Cp + To + Ta” value ([5]; 2500 ppm in paint) of the same compound?
Answer: Its value is 0%.

Question: And the “% Inhibition, Cal-Tre” value ([5]; Cal-Tre)?
Answer: Its value is 100%.

Question: And the “% Inhibition An + Pf” value ([9]; 750 ppm in paint)?
Answer: The value was 20%.

Question: What about the “% Inhibition An + Pf” value ([9]; 1500 ppm in paint) of the same compound?
Answer: The value was 27.5%.

Question: And the “% Inhibition An + Pf” value ([9]; 2500 ppm in paint)?
Answer: The value was 30%.

Question: And the “% Inhibition, An-Pf” value ([9]; An-Pf)?
Answer: Its value is 100%.

Question: Which results are given for zinc pyrithione [ZPT]?
Answer: % Inhibition, Os-Gl ([1]; Os-Gl): 100%; Total conc (minimum inhibitory concentration chosen for SI), Os-Gl ([1]; total active in paint, Os-Gl): 3300 pppm; % Inhibition, Ch-No ([2]; at the total conc printed for the same blend, Ch-No): 80%; Total conc (minimum inhibitory concentration chosen for SI), Ch-No ([2]; total active in paint, Ch-No): 412.5 pppm; % Inhibition, Cal-Tre ([5]; Cal-Tre): 40%; Total conc (minimum inhibitory concentration chosen for SI), Cal-Tre ([5]; total active in paint, Cal-Tre): 3300 pppm; % Inhibition, An-Pf ([9]; An-Pf): 0%; Total conc (minimum inhibitory concentration chosen for SI), An-Pf ([9]; total active in paint, An-Pf): 3300 pppm
